Reference: ChEMBL document CHEMBL5223080, “Discovery of Pyrrole-imidazole Polyamides as PD-L1 Expression Inhibitors and Their Anticancer Activity via Immune and Nonimmune Pathways” (J Med Chem, 2021)
The source made the active and inactive calls. The calls are words filed in the database; no cut-off is given here.

Key:
[1] = system: MDA-MB-231; test: (§1) Induction of T-cell mediated cell killing in human MDA-MB-231 cells co-cultured with PMA-activated Jurkat T cells assessed as IL-2 production at 8 uM by ELISA relative to control; type: functional
[2] = system: MDA-MB-231; test: Inhibition of PD-L1 protein expression in IFNgamma-induced human MDA-MB-231 cells measured for 36 hrs by Western blot analysis; type: functional, cell-based; conditions: dose 1.25-10 µM
[3] = Binding affinity to human single stranded DNA (unknown origin) by electrophoretic mobility shift assay
[4] = system: MRC5; test: Cytotoxicity against human MRC5 cells at 32 uM by standard CCK-8 assay; type: toxicity, cell-based; conditions: mrc5, 32 µM
[5] = system: MDA-MB-231; test: Antitumour activity against human MDA-MB-231 cells assessed as measuring interleukin-2 levels by ELISA; type: functional
[6] = species on record: Homo sapiens; test: Binding affinity to DNA STAT3 binding site of PD-L1 promoter region assessed as effect on binding of STAT3 protein to STAT3 binding site of PD-L1 promoter region by competitive electrophoretic mobility shift assay
[7] = system: HCC827; test: Cytotoxicity against human HCC827 cells incubated for 36 hrs by standard CCK-8 assay; type: functional, cell-based; conditions: for IC50: HCC827, 36 h; for Activity: dose 2-32 µM
[8] = system: HCC827; test: (§2) Induction of T-cell mediated cell killing in human HCC827 cells co-cultured with PMA-activated Jurkat T cells assessed as IL-2 production at 8 uM by ELISA relative to control; type: functional
[9] = system: Jurkat; test: Cytotoxicity against human Jurkat cells at 8 uM incubated for 36 hrs by standard CCK-8 assay; type: toxicity, cell-based
[10] = system: dsDNA; test: Binding affinity to human wild-type double stranded DNA assessed as thermal stability of compound-DNA complex by measuring change in melting temperature at stoichiometry ratio 1:0.5 by UV melting assay; type: nucleic-acid assay
[11] = system: MDA-MB-231; test: Cytotoxicity against human MDA-MB-231 cells incubated for 36 hrs by standard CCK-8 assay; type: functional, cell-based; conditions: for IC50: MDA-MB-231, 36 h; for Activity: dose 2-32 µM
[12] = system: HCC827; test: (§3) Induction of T-cell mediated cytotoxicity against human HCC827 cells co-cultured with Jurkat cells assessed as apoptotic cells at 8 uM incubated for 36 hrs by standard CCK-8 assay relative to control; type: functional
[13] = system: dsDNA; test: Binding affinity to human wild-type double stranded DNA assessed as thermal stability of compound-DNA complex by measuring change in melting temperature at stoichiometry ratio 1:4 by UV melting assay; type: nucleic-acid assay
[14] = system: HCC827; test: Inhibition of PD-L1 protein expression in IFNgamma-induced human HCC827 cells measured for 36 hrs by Western blot analysis; type: functional, cell-based; conditions: dose 1.25-10 µM
[15] = system: HCC827; test: Antitumour activity against human HCC827 cells assessed as measuring interleukin-2 levels by ELISA; type: functional
[16] = system: MDA-MB-231; test: (§4) Induction of T-cell mediated cytotoxicity against human MDA-MB-231 cells co-cultured with Jurkat cells assessed as apoptotic cells at 8 uM incubated for 36 hrs by standard CCK-8 assay relative to control; type: functional
[17] = system: dsDNA; test: Binding affinity to human wild-type double stranded DNA assessed as thermal stability of compound-DNA complex by measuring change in melting temperature at stoichiometry ratio 1:1 by UV melting assay; type: nucleic-acid assay
[18] = Binding affinity to DNA STAT3 binding site of PD-L1 promoter region (unknown origin) by electrophoretic mobility shift assay
[19] = system: DNA; test: Binding affinity to wild type double stranded DNA (unknown origin) incubated for 24 hrs by Circular Dichroism assay; type: nucleic-acid assay
[20] = as §1; type: functional
[21] = system: dsDNA; test: Binding affinity to human mutant double stranded DNA assessed as thermal stability of compound-DNA complex by measuring change in melting temperature at stoichiometry ratio 1:1 by UV melting assay; type: nucleic-acid assay
[22] = system: HCC827; test: Induction of apoptosis in human HCC827 cells assessed as inhibition of pro-caspase 3 at 10 uM by Western blot analysis; type: functional, cell-based
[23] = system: HCC827; test: Induction of apoptosis in human HCC827 cells co-cultured with human Jurkat T cells at 8 uM relative to control; type: functional
[24] = species on record: Homo sapiens; test: Binding affinity to 5'-biotin-double stranded DNA (unknown origin) assessed as saturation of the compound-DNA complex at 350 to 500 nM by surface plasmon resonance; conditions: dose 350-500 nM
[25] = system: DNA; test: Binding affinity to wild type double stranded DNA (unknown origin) at 1:1 compound to DNA ratio incubated for 24 hrs at 340 nm by Circular Dichroism assay; type: nucleic-acid assay
[26] = system: MDA-MB-231; test: Antimigratory activity in human MDA-MB-231 cells assessed as inhibition rate at 2 uM measured after 48 hrs by Wound healing assay relative to control; type: functional; parameters: scale not given: the % may be the effect or the level left
[27] = molecular target: dsDNA; test: Binding affinity to human 5'-biotin-double stranded DNA assessed as dissociation equilibrium constant by surface plasmon resonance; type: nucleic-acid assay
[28] = system: MDA-MB-231; test: Induction of apoptosis in human MDA-MB-231 cells assessed as inhibition of pro-caspase 3 at 10 uM by Western blot analysis; type: functional, cell-based
[29] = as §2; type: functional
[30] = system: DNA; test: Binding affinity to wild-type double stranded DNA (unknown origin) by assessed as decrease in compound-DNA complex at >=8 uM by competitive electrophoretic mobility shift assay; type: nucleic-acid assay
[31] = system: HCC827; test: Antimigratory activity in human HCC827 cells assessed as inhibition rate at 2 uM measured after 48 hrs by Wound healing assay relative to control; type: functional; parameters: scale not given: the % may be the effect or the level left
[32] = system: dsDNA; test: Binding affinity to human 5'-biotin-double stranded DNA assessed as association rate constant by surface plasmon resonance; type: nucleic-acid assay
[33] = system: HCC827; test: Antimigratory activity in human HCC827 cells assessed as inhibition rate at 0.5 to 1 uM measured after 48 hrs by Wound healing assay relative to control; type: functional; parameters: scale not given: the % may be the effect or the level left; conditions: dose 0.5-1 µM
[34] = system: MDA-MB-231; test: Induction of apoptosis in human MDA-MB-231 cells assessed as inhibition of Akt phosphorylation at 10 uM by Western blot analysis; type: functional, cell-based
[35] = as §3; type: functional
[36] = system: MDA-MB-231; test: Antimigratory activity in human MDA-MB-231 cells assessed as inhibition rate at 0.5 to 1 uM measured after 48 hrs by Wound healing assay relative to control; type: functional; parameters: scale not given: the % may be the effect or the level left; conditions: dose 0.5-1 µM
[37] = molecular target: dsDNA; test: Binding affinity to human 5'-biotin-double stranded DNA assessed as dissociation rate constant by surface plasmon resonance; type: nucleic-acid assay
[38] = system: HCC827; test: Inhibition of PD-L1 mRNA expression in IFNgamma-induced human HCC827 cells measured for 36 hrs by qRT-PCR analysis; type: functional, cell-based; conditions: dose 1.25-10 µM
[39] = system: DNA; test: Binding affinity to wild type 28 nucleotide double stranded DNA (unknown origin) in PD-L1 gene promotor region at 1:1 compound to DNA ratio incubated for 24 hrs by Circular Dichroism assay; type: nucleic-acid assay
[40] = system: MDA-MB-231; test: Induction of apoptosis in human MDA-MB-231 cells co-cultured with human Jurkat T cells at 8 uM relative to control; type: functional
[41] = system: dsDNA; test: Binding affinity to human mutant double stranded DNA assessed as thermal stability of compound-DNA complex by measuring melting temperature change in at stoichiometry ratio 1:0.5 by UV melting assay; type: nucleic-acid assay
[42] = as §4; type: functional
[43] = Binding affinity to DNA STAT3 binding site of PD-L1 promoter region (unknown origin) assessed as disappearance of band of wild-type double stranded DNA-STAT3 protein complex at > 8 uM by competitive electrophoretic mobility shift assay
[44] = system: dsDNA; test: Binding affinity to human mutant double stranded DNA assessed as thermal stability of compound-DNA complex by measuring melting change in temperature at stoichiometry ratio 1:4 by UV melting assay; type: nucleic-acid assay
[45] = system: MDA-MB-231; test: Inhibition of PD-L1 mRNA expression in IFNgamma-induced human MDA-MB-231 cells measured for 36 hrs by qRT-PCR analysis; type: functional, cell-based; conditions: dose 1.25-10 µM
[46] = system: HCC827; test: Induction of apoptosis in human HCC827 cells assessed as inhibition of Akt phosphorylation at 10 uM by Western blot analysis; type: functional, cell-based
[47] = system: DNA; test: Binding affinity to 5'-biotin-double stranded DNA (unknown origin) assessed as interaction with DNA to achieve steady state at 20 nM; type: nucleic-acid assay

CC(=O)Nc1cc(C(=O)Nc2cc(C(=O)Nc3cc(C(=O)Nc4cn(C)c(C(=O)NCCC(=O)Nc5cn(C)c(C(=O)NCCCC(=O)Nc6cc(C(=O)Nc7cc(C(=O)NCCC(=O)Nc8cn(C)c(C(=O)Nc9cn(C)c(C(=O)Nc%10cc(C(=O)NCCC(=O)NCCCN(C)C)n(C)c%10)n9)n8)n(C)c7)n(C)c6)n5)n4)n(C)c3)n(C)c2)n(C)c1.Cl
Activity [1]: inactive | inhibition [2]: inactive | Activity [3]: inactive | Activity [4]: Non-Toxic | Activity [5]: inactive | Activity [6]: inactive | IC50 [7]: > 200 µM | Activity [7]: inactive | Activity [8]: inactive | Activity [9]: Non-Toxic | ΔTm [10]: 0.2 °C | IC50 [11]: > 200 µM | Activity [11]: inactive | Activity [12]: inactive | ΔTm [13]: 0.7 °C | inhibition [14]: inactive | Activity [15]: inactive | Activity [16]: inactive | ΔTm [17]: 0.4 °C | Activity [18]: inactive

CC(=O)Nc1cc(C(=O)Nc2cc(C(=O)Nc3cc(C(=O)Nc4cn(C)c(C(=O)Nc5cn(C)c(C(=O)NCCC(=O)Nc6cn(C)c(C(=O)NCCCC(=O)Nc7cc(C(=O)Nc8cc(C(=O)Nc9cc(C(=O)NCCC(=O)Nc%10cc(C(=O)Nc%11cn(C)c(C(=O)Nc%12cc(C(=O)NCCC(=O)NCCCN(C)C)n(C)c%12)n%11)n(C)c%10)n(C)c9)n(C)c8)n(C)c7)n6)n5)n4)n(C)c3)n(C)c2)n(C)c1.Cl
Activity [19]: Active | Activity [20]: 60.35% | ΔTm [21]: 0.2 °C | inhibition [22]: Active | inhibition [2]: Dose-Dependent Effect | Activity [23]: 269.14% | Activity [24]: Active | Activity [3]: inactive | Activity [4]: Non-Toxic | Activity [25]: Active | Activity [5]: 87.89 pg/mL | Activity [26]: 86.33% | Kd [27]: 49.9 nM | IC50 [7]: 11.8 µM | Activity [7]: Dose-Dependent Effect | inhibition [28]: Active | Activity [29]: 57% | Activity [9]: Non-Toxic | Activity [30]: Active | Activity [31]: >70% | Ka [32]: 6.47 10^6/M/s | Activity [33]: 50% | Activity [34]: Active | ΔTm [10]: 2.9 °C | IC50 [11]: 9.05 µM | Activity [11]: Dose-Dependent Effect | Activity [35]: 70% | Activity [36]: 50% | Kd [37]: 32.3 10^-2/s | ΔTm [13]: 7.3 °C | inhibition [14]: Dose-Dependent Effect | Activity [15]: 51.17 pg/mL | inhibition [38]: Dose-Dependent Effect | Activity [39]: Active | Activity [40]: 30.84% | ΔTm [41]: 0.1 °C | Activity [42]: 82.11% | Activity [43]: Active | ΔTm [17]: 7 °C | ΔTm [44]: 0.4 °C | inhibition [45]: Dose-Dependent Effect | Activity [46]: Active

COc1nc(OCc2cccc(-c3ccccc3)c2C)ccc1CNCCNC(C)=O
IC50 [7]: 8.41 µM | IC50 [11]: 7.92 µM | Activity [35]: 70.87% | Activity [42]: 87.58%

CC(=O)Nc1cc(C(=O)Nc2cc(C(=O)Nc3cc(C(=O)Nc4cn(C)c(C(=O)Nc5cn(C)c(C(=O)NCCC(=O)Nc6cn(C)c(C(=O)Nc7cc(C(=O)Nc8cc(C(=O)NCCCC(=O)Nc9cc(C(=O)Nc%10cc(C(=O)Nc%11cc(C(=O)NCCC(=O)Nc%12cc(C(=O)Nc%13cc(C(=O)Nc%14cn(C)c(C(=O)Nc%15cc(C(=O)Nc%16cc(C(=O)NCCC(=O)NCCCN(C)C)n(C)c%16)n(C)c%15)n%14)n(C)c%13)n(C)c%12)n(C)c%11)n(C)c%10)n(C)c9)n(C)c8)n(C)c7)n6)n5)n4)n(C)c3)n(C)c2)n(C)c1.Cl
Activity [19]: Active | Activity [20]: 33% | ΔTm [21]: 0.3 °C | inhibition [2]: Dose-Dependent Effect | Activity [23]: 23.4% | Activity [24]: Active | Activity [3]: inactive | Activity [4]: Non-Toxic | Activity [25]: Active | Activity [5]: 48.06 pg/mL | Activity [26]: >70% | Kd [27]: 8.28 nM | IC50 [7]: 23.2 µM | Activity [7]: Dose-Dependent Effect | Activity [29]: 31.41% | Activity [9]: Non-Toxic | Activity [30]: Active | Activity [31]: >70% | Ka [32]: 1.28 10^6/M/s | Activity [33]: 50% | ΔTm [10]: 2.7 °C | IC50 [11]: 21.7 µM | Activity [11]: Dose-Dependent Effect | Activity [47]: Active | Activity [35]: 48% | Activity [36]: 50% | Kd [37]: 1.06 10^-2/s | ΔTm [13]: 8.6 °C | inhibition [14]: Dose-Dependent Effect | Activity [15]: 28.2 pg/mL | inhibition [38]: Dose-Dependent Effect | Activity [39]: Active | Activity [40]: 27.76% | ΔTm [41]: 0.2 °C | Activity [42]: 50.73% | Activity [43]: Active | ΔTm [17]: 8.2 °C | ΔTm [44]: 0.6 °C | inhibition [45]: Dose-Dependent Effect
